Usually EC50 stands for the concentration that produces a half-maximal response. A word on the IC50: it is the point on the concentration scale where inhibition reaches its midpoint. By Ki is commonly meant a measure of affinity in units of concentration, obtained from inhibition or displacement. A word on the pKi: it is −log10 of the Ki, conventionally taken in molar units. The low end stands for a large Ki, the high end for a small Ki.

Activity calls are given as the source filed them.

Test [1] is described as follows: fluconazole-exposed Candida albicans growth modulators – fluorescence, retest, confirmation (AID 2467). In kind it is functional, cell-based.
In test [2] the target is T1, Apoptotic protease-activating factor 1 (Homo sapiens, UniProt O14727).
T1 sequence (O14727 whole entry): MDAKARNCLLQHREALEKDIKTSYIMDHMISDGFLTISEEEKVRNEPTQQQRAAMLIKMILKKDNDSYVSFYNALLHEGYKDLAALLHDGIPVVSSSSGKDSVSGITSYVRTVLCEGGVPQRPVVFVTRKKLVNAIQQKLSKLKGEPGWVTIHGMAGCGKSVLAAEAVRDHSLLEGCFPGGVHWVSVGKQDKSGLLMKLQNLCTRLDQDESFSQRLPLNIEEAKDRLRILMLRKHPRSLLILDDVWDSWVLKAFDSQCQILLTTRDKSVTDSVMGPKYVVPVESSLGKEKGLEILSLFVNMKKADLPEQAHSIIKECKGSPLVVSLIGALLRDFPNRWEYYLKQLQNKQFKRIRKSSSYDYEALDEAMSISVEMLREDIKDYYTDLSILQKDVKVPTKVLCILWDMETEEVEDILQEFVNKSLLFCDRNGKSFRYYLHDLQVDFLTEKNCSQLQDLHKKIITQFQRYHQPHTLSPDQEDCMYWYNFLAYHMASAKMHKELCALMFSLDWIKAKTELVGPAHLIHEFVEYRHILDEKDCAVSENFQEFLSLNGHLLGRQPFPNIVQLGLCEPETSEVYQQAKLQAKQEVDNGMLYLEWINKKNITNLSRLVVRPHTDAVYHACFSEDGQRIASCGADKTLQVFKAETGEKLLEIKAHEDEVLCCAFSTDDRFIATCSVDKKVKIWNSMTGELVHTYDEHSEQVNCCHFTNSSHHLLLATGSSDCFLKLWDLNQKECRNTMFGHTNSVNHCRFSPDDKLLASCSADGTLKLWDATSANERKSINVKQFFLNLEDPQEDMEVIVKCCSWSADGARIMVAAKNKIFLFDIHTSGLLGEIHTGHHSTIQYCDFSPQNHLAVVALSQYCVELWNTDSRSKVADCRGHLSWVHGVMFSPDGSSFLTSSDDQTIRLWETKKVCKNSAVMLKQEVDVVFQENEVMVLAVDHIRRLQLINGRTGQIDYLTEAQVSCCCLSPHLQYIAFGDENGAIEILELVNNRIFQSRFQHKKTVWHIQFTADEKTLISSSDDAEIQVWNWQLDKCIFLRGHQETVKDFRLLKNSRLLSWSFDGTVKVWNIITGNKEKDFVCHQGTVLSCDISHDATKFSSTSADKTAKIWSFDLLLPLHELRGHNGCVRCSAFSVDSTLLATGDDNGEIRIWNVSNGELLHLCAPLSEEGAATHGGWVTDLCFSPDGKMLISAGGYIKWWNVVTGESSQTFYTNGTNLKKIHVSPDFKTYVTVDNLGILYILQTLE
The format is functional.

In a further test the target is T2, Streptokinase A (Streptococcus pyogenes serotype M1, UniProt P10520).
T2 sequence (P10520 whole entry): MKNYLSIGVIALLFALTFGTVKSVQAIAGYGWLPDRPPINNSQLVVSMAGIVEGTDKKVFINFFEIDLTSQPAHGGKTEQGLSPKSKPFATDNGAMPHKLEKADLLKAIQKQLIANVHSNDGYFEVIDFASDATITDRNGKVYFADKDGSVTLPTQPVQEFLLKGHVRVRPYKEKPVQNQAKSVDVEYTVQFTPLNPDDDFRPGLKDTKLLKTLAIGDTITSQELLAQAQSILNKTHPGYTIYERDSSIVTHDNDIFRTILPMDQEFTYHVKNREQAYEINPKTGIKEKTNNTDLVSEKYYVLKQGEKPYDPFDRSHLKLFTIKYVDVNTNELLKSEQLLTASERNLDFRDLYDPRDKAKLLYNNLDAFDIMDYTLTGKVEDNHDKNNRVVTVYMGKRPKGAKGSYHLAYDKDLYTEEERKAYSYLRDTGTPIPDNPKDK
Kind of test: viability-normalized secreted streptokinase activity reduction – plasminogen activation absorbance, OD405, dose response (AID 1914).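 Note: secreted streptokinase activity via plasminogen activation per viability signal from cell pellet.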 In kind it is functional, Streptococcus pyogenes M1 GAS.

Test [3] addresses T3, Serine/threonine-protein kinase D3 (Homo sapiens, UniProt O94806).
T3 sequence (O94806 whole entry): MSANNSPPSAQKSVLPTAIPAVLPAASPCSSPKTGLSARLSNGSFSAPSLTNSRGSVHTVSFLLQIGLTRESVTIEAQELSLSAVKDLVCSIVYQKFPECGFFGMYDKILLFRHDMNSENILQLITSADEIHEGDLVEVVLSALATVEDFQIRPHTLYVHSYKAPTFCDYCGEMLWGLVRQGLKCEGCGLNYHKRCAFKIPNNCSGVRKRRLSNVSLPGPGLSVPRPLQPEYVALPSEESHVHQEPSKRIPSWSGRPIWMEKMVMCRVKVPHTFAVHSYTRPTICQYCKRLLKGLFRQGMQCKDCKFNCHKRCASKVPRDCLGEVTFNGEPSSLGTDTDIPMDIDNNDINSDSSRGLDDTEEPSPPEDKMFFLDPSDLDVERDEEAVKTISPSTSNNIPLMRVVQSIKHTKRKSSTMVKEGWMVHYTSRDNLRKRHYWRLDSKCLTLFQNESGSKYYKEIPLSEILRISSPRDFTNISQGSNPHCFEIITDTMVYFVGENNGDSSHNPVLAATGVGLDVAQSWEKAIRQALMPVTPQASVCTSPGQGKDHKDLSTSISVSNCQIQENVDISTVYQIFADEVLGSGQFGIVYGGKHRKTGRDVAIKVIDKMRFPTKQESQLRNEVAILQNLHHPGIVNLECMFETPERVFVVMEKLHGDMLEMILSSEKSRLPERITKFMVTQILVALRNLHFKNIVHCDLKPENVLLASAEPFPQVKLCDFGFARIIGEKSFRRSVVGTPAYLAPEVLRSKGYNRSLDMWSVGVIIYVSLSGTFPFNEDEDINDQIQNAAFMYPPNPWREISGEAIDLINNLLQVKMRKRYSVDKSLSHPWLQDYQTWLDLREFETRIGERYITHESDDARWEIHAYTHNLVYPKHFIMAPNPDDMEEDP
In kind it is functional.

Test [4] has as its target Cyclin-dependent kinase 8 (Homo sapiens, UniProt P49336). Put plainly: Navigating the Kinome. Panel member name: CDK8. In kind it is functional.
Test [5] concerns the target ALK tyrosine kinase receptor (Homo sapiens, UniProt Q9UM73). In kind it is functional.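 Note: ALK tested as one member of a kinase panel screen.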
In test [6] the target is Dual specificity protein kinase CLK2 (Homo sapiens, UniProt P49760). The format is functional.
Dual specificity protein kinase CLK2, sequence (P49760 whole entry): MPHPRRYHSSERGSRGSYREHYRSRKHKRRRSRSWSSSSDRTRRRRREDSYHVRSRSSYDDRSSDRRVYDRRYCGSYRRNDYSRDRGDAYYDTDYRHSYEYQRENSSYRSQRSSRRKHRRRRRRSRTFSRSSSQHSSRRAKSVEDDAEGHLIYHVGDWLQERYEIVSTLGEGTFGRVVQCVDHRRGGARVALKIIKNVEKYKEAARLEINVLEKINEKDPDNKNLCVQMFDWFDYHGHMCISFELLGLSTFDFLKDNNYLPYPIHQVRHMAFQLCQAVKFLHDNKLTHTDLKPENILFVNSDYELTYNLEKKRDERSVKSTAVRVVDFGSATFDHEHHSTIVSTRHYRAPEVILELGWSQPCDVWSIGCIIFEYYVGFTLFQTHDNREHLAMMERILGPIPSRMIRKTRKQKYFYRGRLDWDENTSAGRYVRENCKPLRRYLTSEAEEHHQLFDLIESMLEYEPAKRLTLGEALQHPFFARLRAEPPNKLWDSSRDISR
The target of test [7] is Vascular endothelial growth factor receptor 1 (Homo sapiens, UniProt P17948). In kind it is functional.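 Note: measured within a kinome-wide profiling panel, FLT1 as the panel member.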
Vascular endothelial growth factor receptor 1, sequence (P17948 whole entry): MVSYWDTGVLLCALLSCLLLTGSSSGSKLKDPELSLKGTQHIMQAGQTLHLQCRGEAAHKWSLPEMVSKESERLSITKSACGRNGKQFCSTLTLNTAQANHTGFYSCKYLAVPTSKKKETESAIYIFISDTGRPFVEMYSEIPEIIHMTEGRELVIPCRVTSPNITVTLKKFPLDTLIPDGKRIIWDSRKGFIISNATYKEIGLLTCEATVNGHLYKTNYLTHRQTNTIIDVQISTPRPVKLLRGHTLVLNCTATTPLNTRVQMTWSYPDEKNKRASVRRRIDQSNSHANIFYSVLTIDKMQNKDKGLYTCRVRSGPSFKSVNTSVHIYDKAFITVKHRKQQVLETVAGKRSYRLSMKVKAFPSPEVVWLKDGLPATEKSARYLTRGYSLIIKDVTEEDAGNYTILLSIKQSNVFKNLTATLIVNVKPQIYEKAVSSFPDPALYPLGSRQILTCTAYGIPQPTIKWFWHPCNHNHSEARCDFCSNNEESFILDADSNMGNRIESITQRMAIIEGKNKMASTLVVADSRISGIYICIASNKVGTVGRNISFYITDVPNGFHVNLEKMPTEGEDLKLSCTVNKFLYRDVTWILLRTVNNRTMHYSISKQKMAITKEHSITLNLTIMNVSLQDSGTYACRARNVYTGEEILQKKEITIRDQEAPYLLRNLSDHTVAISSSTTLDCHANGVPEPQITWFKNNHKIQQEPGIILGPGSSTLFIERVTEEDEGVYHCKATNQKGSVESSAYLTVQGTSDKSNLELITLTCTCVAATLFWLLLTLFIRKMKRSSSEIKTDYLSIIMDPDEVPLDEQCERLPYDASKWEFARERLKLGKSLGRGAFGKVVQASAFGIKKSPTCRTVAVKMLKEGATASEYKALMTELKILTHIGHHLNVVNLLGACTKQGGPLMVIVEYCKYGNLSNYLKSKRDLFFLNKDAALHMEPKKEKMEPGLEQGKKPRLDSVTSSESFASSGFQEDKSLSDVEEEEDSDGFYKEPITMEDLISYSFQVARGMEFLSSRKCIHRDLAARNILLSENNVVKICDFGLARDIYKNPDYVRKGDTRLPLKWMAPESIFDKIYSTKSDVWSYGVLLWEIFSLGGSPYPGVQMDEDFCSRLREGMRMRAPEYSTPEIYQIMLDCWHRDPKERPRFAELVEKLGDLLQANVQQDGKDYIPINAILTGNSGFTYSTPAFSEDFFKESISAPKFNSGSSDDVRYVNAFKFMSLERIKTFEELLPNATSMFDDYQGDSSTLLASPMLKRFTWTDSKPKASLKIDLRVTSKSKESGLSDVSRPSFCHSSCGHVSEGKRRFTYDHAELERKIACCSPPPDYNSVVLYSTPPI
The target in test [8] is 5'-AMP-activated protein kinase catalytic subunit alpha-1 (Homo sapiens, UniProt Q13131). In kind it is functional.
5'-AMP-activated protein kinase catalytic subunit alpha-1, sequence (Q13131 whole entry): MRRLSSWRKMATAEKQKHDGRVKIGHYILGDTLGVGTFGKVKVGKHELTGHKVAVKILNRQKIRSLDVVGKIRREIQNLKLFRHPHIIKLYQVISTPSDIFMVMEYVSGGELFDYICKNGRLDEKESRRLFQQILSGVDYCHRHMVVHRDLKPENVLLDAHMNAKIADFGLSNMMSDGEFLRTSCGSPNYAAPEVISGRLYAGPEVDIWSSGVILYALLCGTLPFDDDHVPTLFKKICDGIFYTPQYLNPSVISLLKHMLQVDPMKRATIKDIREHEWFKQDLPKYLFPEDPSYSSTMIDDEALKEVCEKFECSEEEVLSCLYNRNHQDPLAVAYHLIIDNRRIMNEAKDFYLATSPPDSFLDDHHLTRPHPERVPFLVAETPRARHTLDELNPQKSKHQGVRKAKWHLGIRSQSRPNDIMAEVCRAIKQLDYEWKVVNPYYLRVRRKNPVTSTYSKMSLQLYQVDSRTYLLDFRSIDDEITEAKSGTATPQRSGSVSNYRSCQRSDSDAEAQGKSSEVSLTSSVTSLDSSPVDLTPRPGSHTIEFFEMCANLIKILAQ
Test [9] deals with Tyrosine-protein kinase receptor TYRO3 (Homo sapiens, UniProt Q06418). The format is functional.

Cyclin-dependent kinase 8, sequence (P49336 whole entry): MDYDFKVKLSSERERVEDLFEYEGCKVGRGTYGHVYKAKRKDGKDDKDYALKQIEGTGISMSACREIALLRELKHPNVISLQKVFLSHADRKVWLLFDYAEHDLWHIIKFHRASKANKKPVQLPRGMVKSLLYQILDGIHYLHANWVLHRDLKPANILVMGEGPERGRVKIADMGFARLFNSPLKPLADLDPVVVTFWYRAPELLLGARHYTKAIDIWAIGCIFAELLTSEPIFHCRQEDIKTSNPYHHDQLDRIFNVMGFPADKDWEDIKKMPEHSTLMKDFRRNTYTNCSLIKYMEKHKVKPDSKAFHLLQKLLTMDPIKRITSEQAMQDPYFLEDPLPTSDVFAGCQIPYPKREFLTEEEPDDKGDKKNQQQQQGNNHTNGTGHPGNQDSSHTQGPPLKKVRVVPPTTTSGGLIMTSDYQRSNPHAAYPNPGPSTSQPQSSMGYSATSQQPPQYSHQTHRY
ALK tyrosine kinase receptor, sequence (Q9UM73 whole entry): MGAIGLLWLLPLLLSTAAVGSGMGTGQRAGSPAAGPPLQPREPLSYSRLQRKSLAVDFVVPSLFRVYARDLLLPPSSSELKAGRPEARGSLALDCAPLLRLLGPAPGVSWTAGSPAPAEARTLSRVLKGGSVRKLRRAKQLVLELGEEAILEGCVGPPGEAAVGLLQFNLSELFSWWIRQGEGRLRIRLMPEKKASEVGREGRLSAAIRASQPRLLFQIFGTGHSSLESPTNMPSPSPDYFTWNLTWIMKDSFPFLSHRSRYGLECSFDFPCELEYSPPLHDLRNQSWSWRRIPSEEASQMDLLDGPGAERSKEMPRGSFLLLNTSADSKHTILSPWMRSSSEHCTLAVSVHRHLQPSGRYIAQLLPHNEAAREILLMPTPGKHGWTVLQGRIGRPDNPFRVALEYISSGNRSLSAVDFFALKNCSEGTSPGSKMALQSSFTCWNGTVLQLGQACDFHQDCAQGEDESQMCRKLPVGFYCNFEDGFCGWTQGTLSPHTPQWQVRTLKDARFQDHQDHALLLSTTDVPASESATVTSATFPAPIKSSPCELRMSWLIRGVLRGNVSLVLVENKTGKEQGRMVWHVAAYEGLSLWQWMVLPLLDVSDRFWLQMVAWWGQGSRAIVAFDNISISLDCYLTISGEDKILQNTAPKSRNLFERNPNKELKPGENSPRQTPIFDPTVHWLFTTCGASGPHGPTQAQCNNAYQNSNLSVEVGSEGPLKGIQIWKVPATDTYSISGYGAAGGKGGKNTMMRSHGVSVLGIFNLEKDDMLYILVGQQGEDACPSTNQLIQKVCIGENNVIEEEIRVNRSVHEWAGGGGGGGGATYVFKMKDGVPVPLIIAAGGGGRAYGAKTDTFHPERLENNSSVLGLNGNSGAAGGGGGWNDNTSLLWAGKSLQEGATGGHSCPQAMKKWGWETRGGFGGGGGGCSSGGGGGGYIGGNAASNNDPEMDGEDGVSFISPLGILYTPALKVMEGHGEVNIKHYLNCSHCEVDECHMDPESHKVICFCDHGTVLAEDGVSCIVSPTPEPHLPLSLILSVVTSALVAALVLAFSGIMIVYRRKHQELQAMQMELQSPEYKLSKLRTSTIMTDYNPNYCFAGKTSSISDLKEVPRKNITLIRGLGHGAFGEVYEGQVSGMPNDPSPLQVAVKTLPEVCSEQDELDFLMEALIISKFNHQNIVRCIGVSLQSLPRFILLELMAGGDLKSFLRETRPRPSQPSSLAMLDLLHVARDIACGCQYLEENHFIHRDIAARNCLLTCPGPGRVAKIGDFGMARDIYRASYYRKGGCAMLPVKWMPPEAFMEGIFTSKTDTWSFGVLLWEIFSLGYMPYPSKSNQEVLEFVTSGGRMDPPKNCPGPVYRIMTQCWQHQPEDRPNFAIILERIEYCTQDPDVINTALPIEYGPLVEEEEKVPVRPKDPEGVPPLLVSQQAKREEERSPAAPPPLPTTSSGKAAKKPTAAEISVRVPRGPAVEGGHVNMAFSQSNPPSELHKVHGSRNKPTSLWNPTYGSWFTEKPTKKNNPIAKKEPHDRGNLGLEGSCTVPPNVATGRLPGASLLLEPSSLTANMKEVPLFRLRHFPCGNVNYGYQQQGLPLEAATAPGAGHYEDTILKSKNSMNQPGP

Turning to `CC(C)CC(=O)NC(c1cccs1)c1ccc2cccnc2c1O` (stereo not drawn), the concentration giving a half-maximal response (EC50) in test [1] is 0.58 µM (active).

Take `CCOC(=O)c1ccc(NC2=CC(=O)C(=O)c3ccccc32)cc1`: the 50% inhibitory concentration (IC50) in [2] was 4.73 µM (active). Moreover, the concentration giving a half-maximal response (EC50) at Streptokinase A is 9.93 µM (active).

Regarding `OC(CNCCC1C=Nc2ccccc21)Cn1c2ccc(Cl)cc2c2cc(Cl)ccc21` (stereo not drawn), in [1], the concentration giving a half-maximal response (EC50) is recorded as > 38 µM (not active).

For `CCCCCCCCCCCCCCCC[N+](C)(C)C`, the results for the EC50 (in test [1]; on Streptokinase A) were > 38 µM (not active) and 19.6 µM (active), respectively. Besides, in test [2], the 50% inhibitory concentration (IC50) was 27.5 µM (active).

With `NC1CCC(Nc2nc(Cl)cc(-c3c[nH]c4ncccc34)n2)CC1` (stereo not drawn), the Ki was 0.00501 µM (active) in test [3]; 0.00501 µM (active) in [4]; 0.631 µM (active) in [5]; 0.00794 µM (active) in test [6]; > 3.98 µM (inactive) in test [7]; 0.0398 µM (active) in test [8]. Moreover, the inhibitory constant (Ki) in test [9] is 2.51 µM (active). The pKi in test [3] is recorded as 8.3; in test [4], 8.3; in test [5], 6.2; in test [6] it was 8.1; in test [8], 7.4.

In the case of `O=C(O)C1CN(Cc2ccc(OCc3ccccc3)cc2Cl)C1`, the Ki in [3] was > 3.98 µM (inactive); in [4] it was > 3.98 µM (inactive); in test [5], > 6.31 µM (inactive); in test [6], > 3.98 µM (inactive); in [7], > 3.98 µM (inactive); in test [8], > 3.16 µM (inactive). Moreover, in [9], the Ki is > 3.16 µM (inactive).

Take `COc1ccc(C(=O)c2nccc3cc(OC)c(OC)cc23)cc1OC`: in test [2], the half-inhibitory concentration (IC50) was 24.4 µM (active).

As to `Cc1ccccc1-c1cc2c(nn1)-c1ccccc1C2=O`, in [2], the half-maximal inhibitory concentration (IC50) is 25.5 µM (active).

(Values after ChEMBL document CHEMBL1201862, “PubChem BioAssay data set” (2004).)
